# Assay results as given in patent US20100267561A1, “HERBICIDAL PYRIDAZINONE DERIVATIVES” (priority 2007, published 2010).
# Read-outs that look alike come from different tables or passages of the source.
# What was measured:
# Assay in all cases: Test B pre-/postemergence plant response
# Type in all cases: in vivo
# [1] = tested on: green foxtail (Setaria viridis); conditions: Setaria viridis, pre-emergence, Preemergence, read-out: Plant response rating, Foxtail, Green
# Procedure, shortened: (§1)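 Seeds were sown and sprayed preemergence, while plants at 2 to 18 cm (1- to 4-leaf stage) got postemergence sprays. Compounds were formulated in a non-phytotoxic solvent mixture with surfactant. After 13 to 15 days in a greenhouse, injury was rated visually against untreated controls, 0 (no effect) to 100 (complete control).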
# [2] = tested on: catchweed bedstraw (Galium aparine); conditions: Preemergence
# Procedure, shortened: as §1
# [3] = tested on: large crabgrass (Digitaria sanguinalis); conditions: for Crabgrass, Large plant response rating: 8 g ai/ha; for pest or weed control at 16 g/ha / pest or weed control at 31 g/ha / pest or weed control at 62 g/ha: Digitaria sanguinalis, read-out: Plant response rating, Crabgrass, Large; for pest or weed control at 16 g/ha: 16 g ai/ha; for pest or weed control at 31 g/ha: 31 g ai/ha; for pest or weed control at 62 g/ha: 62 g ai/ha
# Procedure, shortened: as §1
# [4] = tested on: bermudagrass (Cynodon dactylon); conditions: for Bermudagrass plant response rating: 8 g ai/ha; for pest or weed control at 16 g/ha / pest or weed control at 31 g/ha / pest or weed control at 62 g/ha: Cynodon dactylon, read-out: Plant response rating, Bermudagrass; for pest or weed control at 16 g/ha: 16 g ai/ha; for pest or weed control at 31 g/ha: 31 g ai/ha; for pest or weed control at 62 g/ha: 62 g ai/ha
# Procedure, shortened: as §1
# [5] = tested on: wheat (Triticum aestivum); conditions: for Wheat plant response rating: 8 g ai/ha; for plant injury at 16 g/ha: 16 g ai/ha; for plant injury at 62 g/ha: 62 g ai/ha
# Procedure, shortened: as §1
# [6] = tested on: blackgrass (Alopecurus myosuroides); conditions: for pest or weed control at 31 g/ha: 31 g ai/ha; for pest or weed control at 62 g/ha: 62 g ai/ha
# Procedure, shortened: as §1
# [7] = tested on: velvetleaf (Abutilon theophrasti); conditions: for Velvetleaf plant response rating: 8 g ai/ha; for pest or weed control at 16 g/ha: 16 g ai/ha; for pest or weed control at 62 g/ha: 62 g ai/ha
# Procedure, shortened: as §1
# [8] = tested on: corn (Zea mays); conditions: for Corn plant response rating: 8 g ai/ha; for Corn plant response rating (crop injury, 0 = no effect, 100 = complete kill) at 16 g/ha / Corn plant response rating (crop injury, 0 = no effect, 100 = complete kill) at 31 g/ha / Corn plant response rating (crop injury, 0 = no effect, 100 = complete kill) at 62 g/ha: Zea mays; for Corn plant response rating (crop injury, 0 = no effect, 100 = complete kill) at 16 g/ha: 16 g ai/ha; for Corn plant response rating (crop injury, 0 = no effect, 100 = complete kill) at 31 g/ha: 31 g ai/ha; for Corn plant response rating (crop injury, 0 = no effect, 100 = complete kill) at 62 g/ha: 62 g ai/ha
# Procedure, shortened: as §1
# [9] = post-emergence, Postemergence, scale 0 to 100
# [10] = post-emergence, Postemergence, scale 0 to 100, 0 no effect, 100 complete control
# [11] = pre-emergence, Preemergence, scale 0 to 100 (0 no effect, 100 complete control)
# [12] = pre-emergence, Preemergence, 0 to 100 scale, 0 no effect, 100 complete control
# [13] = pre-emergence, Preemergence, scale 0 to 100
# [14] = Alopecurus myosuroides, post-emergence, Postemergence, scale 0 to 100, 0 no effect, 100 complete control, read-out: Plant response rating, Blackgrass
smiles,measurement,setting,value
"CCc1c(C)c(-c2ccc(Cl)cc2)nn1-c1c(O)cnn(C)c1=O [Compound 26, 4-[3-(4-chlorophenyl)-5-ethyl-4-methyl-1H-pyrazol-1-yl]-5-hydroxy-2-methyl-3(2H)-pyridazinone]",pest or weed control at 31 g/ha,"[1]; 31 g ai/ha, 0 to 100 scale, 0 no effect, 100 complete control",100%
same,pest or weed control at 62 g/ha,"[1]; 62 g ai/ha, scale 0 to 100",100%
same,pest or weed control at 16 g/ha,"[2]; Galium aparine, pre-emergence, 16 g ai/ha, scale 0 to 100 (0 no effect, 100 complete control), read-out: Plant response rating, Galium",0%
same,pest or weed control at 31 g/ha,"[2]; Galium aparine, pre-emergence, 31 g ai/ha, 0 to 100 scale, 0 no effect, 100 complete control, read-out: Plant response rating, Galium",0%
same,pest or weed control at 62 g/ha,"[2]; Galium aparine, pre-emergence, 62 g ai/ha, scale 0 to 100, read-out: Plant response rating, Galium",0%
same,Galium plant response rating,"[2]; 8 g ai/ha, scale 0 to 100",0
same,"Crabgrass, Large plant response rating","[3]; postemergence, 0-100 scale",45
same,pest or weed control at 16 g/ha,[3]; [9],60%
same,pest or weed control at 31 g/ha,[3]; [10],80%
same,pest or weed control at 62 g/ha,[3]; [10],80%
same,pest or weed control at 16 g/ha,[3]; [11],65%
same,pest or weed control at 31 g/ha,[3]; [12],70%
same,pest or weed control at 62 g/ha,[3]; [13],95%
same,"Crabgrass, Large plant response rating","[3]; Preemergence, scale 0 to 100",0
same,Bermudagrass plant response rating,"[4]; postemergence, 0-100 scale",0
same,pest or weed control at 16 g/ha,[4]; [9],0%
same,pest or weed control at 31 g/ha,[4]; [10],0%
same,pest or weed control at 62 g/ha,[4]; [10],0%
same,pest or weed control at 16 g/ha,[4]; [11],0%
same,pest or weed control at 31 g/ha,[4]; [12],0%
same,pest or weed control at 62 g/ha,[4]; [13],80%
same,Bermudagrass plant response rating,"[4]; Preemergence, scale 0 to 100 (0 no effect, 100 complete control)",0
same,Wheat plant response rating,"[5]; postemergence, 0-100 scale",0
same,Wheat plant response rating,"[5]; Preemergence, scale 0 to 100",0
same,plant injury at 16 g/ha,"[5]; Triticum aestivum, post-emergence, Postemergence, scale 0 to 100, read-out: Plant response rating, Wheat",0%
same,plant injury at 62 g/ha,"[5]; Triticum aestivum, post-emergence, Postemergence, scale 0 to 100, 0 no effect, 100 complete control, read-out: Plant response rating, Wheat",5%
same,plant injury at 16 g/ha,"[5]; Triticum aestivum, pre-emergence, Preemergence, scale 0 to 100 (0 no effect, 100 complete control), read-out: Plant response rating, Wheat",0%
same,plant injury at 31 g/ha,"[5]; Triticum aestivum, pre-emergence, Preemergence, 31 g ai/ha, 0 to 100 scale, 0 no effect, 100 complete control, read-out: Plant response rating, Wheat",0%
same,plant injury at 62 g/ha,"[5]; Triticum aestivum, pre-emergence, Preemergence, scale 0 to 100, read-out: Plant response rating, Wheat",0%
same,Blackgrass plant response rating,"[6]; 8 g ai/ha, postemergence, 0-100 scale",0
same,pest or weed control at 16 g/ha,"[6]; Alopecurus myosuroides, post-emergence, Postemergence, 16 g ai/ha, scale 0 to 100, read-out: Plant response rating, Blackgrass",50%
same,pest or weed control at 31 g/ha,[6]; [14],80%
same,pest or weed control at 62 g/ha,[6]; [14],80%
same,pest or weed control at 31 g/ha,"[6]; Alopecurus myosuroides, pre-emergence, Preemergence, 0 to 100 scale, 0 no effect, 100 complete control, read-out: Plant response rating, Blackgrass",85%
same,pest or weed control at 62 g/ha,"[6]; Alopecurus myosuroides, pre-emergence, Preemergence, scale 0 to 100, read-out: Plant response rating, Blackgrass",100%
same,Velvetleaf plant response rating,"[7]; postemergence, 0-100 scale",0
same,pest or weed control at 16 g/ha,"[7]; Abutilon theophrasti, post-emergence, Postemergence, scale 0 to 100, read-out: Plant response rating, Velvetleaf",0%
same,pest or weed control at 62 g/ha,"[7]; Abutilon theophrasti, post-emergence, Postemergence, scale 0 to 100, 0 no effect, 100 complete control, read-out: Plant response rating, Velvetleaf",0%
same,pest or weed control at 16 g/ha,"[7]; Abutilon theophrasti, pre-emergence, Preemergence, scale 0 to 100 (0 no effect, 100 complete control), read-out: Plant response rating, Velvetleaf",0%
same,pest or weed control at 31 g/ha,"[7]; Abutilon theophrasti, pre-emergence, Preemergence, 31 g ai/ha, 0 to 100 scale, 0 no effect, 100 complete control, read-out: Plant response rating, Velvetleaf",0%
same,pest or weed control at 62 g/ha,"[7]; Abutilon theophrasti, pre-emergence, Preemergence, scale 0 to 100, read-out: Plant response rating, Velvetleaf",0%
same,Velvetleaf plant response rating,"[7]; Preemergence, scale 0 to 100",0
same,Corn plant response rating,"[8]; postemergence, 0-100 scale",0
same,Corn plant response rating,"[8]; Preemergence, scale 0 to 100",15
same,"Corn plant response rating (crop injury, 0 = no effect, 100 = complete kill) at 16 g/ha",[8]; [9],0%
same,"Corn plant response rating (crop injury, 0 = no effect, 100 = complete kill) at 31 g/ha",[8]; [10],100%
same,"Corn plant response rating (crop injury, 0 = no effect, 100 = complete kill) at 62 g/ha",[8]; [10],100%
same,"Corn plant response rating (crop injury, 0 = no effect, 100 = complete kill) at 16 g/ha",[8]; [11],30%
same,"Corn plant response rating (crop injury, 0 = no effect, 100 = complete kill) at 31 g/ha",[8]; [12],70%
same,"Corn plant response rating (crop injury, 0 = no effect, 100 = complete kill) at 62 g/ha",[8]; [13],98%
